In this data set the target is ATP-dependent translocase ABCB1 (Homo sapiens, UniProt P08183). The data set is described as follows: TP_TRANSPORTER: efflux in MDR1-expressing BeWo cells. Format: functional, cell-based.
ATP-dependent translocase ABCB1, sequence (P08183 whole entry): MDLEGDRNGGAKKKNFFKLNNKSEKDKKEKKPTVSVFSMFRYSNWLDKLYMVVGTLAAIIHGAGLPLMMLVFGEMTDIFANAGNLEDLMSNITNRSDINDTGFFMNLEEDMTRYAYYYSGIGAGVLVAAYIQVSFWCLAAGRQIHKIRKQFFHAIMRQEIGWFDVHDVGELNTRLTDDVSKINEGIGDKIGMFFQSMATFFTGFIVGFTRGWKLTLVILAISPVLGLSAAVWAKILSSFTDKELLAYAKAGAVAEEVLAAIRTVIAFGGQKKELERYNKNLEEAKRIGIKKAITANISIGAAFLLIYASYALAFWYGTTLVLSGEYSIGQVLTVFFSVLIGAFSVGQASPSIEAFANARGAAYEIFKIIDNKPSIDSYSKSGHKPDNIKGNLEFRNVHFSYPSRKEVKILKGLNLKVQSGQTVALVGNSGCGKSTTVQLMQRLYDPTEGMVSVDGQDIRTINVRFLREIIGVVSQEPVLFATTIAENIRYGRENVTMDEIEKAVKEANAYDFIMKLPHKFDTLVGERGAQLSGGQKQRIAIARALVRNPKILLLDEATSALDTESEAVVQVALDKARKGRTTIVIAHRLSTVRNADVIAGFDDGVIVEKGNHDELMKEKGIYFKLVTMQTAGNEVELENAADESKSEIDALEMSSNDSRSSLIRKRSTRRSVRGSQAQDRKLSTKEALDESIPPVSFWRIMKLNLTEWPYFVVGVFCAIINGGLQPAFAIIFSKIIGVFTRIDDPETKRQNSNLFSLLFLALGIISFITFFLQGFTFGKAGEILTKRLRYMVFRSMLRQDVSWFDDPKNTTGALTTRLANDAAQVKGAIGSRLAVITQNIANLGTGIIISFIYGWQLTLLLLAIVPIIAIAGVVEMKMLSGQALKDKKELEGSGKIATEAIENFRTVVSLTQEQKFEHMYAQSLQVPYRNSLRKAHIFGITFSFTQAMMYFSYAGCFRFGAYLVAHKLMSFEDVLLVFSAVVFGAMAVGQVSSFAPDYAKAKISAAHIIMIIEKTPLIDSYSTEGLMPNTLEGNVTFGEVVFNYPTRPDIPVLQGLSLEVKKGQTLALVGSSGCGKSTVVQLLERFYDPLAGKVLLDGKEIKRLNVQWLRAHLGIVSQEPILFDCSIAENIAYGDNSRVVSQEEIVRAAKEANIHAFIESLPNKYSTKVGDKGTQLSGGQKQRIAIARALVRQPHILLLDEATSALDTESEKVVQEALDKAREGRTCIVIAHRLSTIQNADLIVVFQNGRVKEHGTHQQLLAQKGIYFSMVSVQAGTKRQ

Take `CC[C@]1(O)C[C@@H]2CN(CCc3c([nH]c4ccccc34)[C@@](C(=O)OC)(c3cc4c(cc3OC)N(C)[C@H]3[C@@](O)(C(=O)OC)[C@H](OC(C)=O)[C@]5(CC)C=CCN6CC[C@]43[C@@H]65)C2)C1` [VINBLASTINE]: the Activity entry is “substrate [+]”.

The values above are taken from ChEMBL document CHEMBL2073803, “Role of MDR1 and MRP1 in trophoblast cells, elucidated using retroviral gene transfer” (Am J Physiol Cell Physiol, 2003).
